What was measured:
Assay in all cases: radiometric filter-binding kinase assay
PRKAA1 or PRKAA2 (rat) = conditions: compound 0.1 µM; accession and sequence are those of the human protein
EPHB3 (human) = EPHB3 (human) (UniProt P54753); conditions: compound 0.1 µM
MINK1 (human) = MINK1 (human) (UniProt Q8N4C8); conditions: compound 0.1 µM
MYLK (human) = MYLK (human) (UniProt Q15746); conditions: compound 0.1 µM
MAPK13 (human) = MAPK13 (human) (UniProt O15264); conditions: compound 0.1 µM
CSK (human) = CSK (human) (UniProt P41240); conditions: compound 0.1 µM
PRKACA (human) = PRKACA (human) (UniProt P17612); conditions: compound 0.1 µM
AURKB (human) = AURKB (human) (UniProt Q96GD4); conditions: compound 0.1 µM
NTRK1 (human) = NTRK1 (human) (UniProt P04629); conditions: compound 0.1 µM
GSK3B (human) = GSK3B (human) (UniProt P49841); conditions: compound 0.1 µM
DAPK1 (human) = DAPK1 (human) (UniProt P53355); conditions: compound 0.1 µM
IKBKB (human) = IKBKB (human) (UniProt O14920); conditions: compound 0.1 µM
MARK4 (human) = MARK4 (human) (UniProt Q96L34); conditions: compound 0.1 µM
MELK (human) = MELK (human) (UniProt Q14680); conditions: compound 0.1 µM
CHEK2 (human) = CHEK2 (human) (UniProt O96017); conditions: compound 0.1 µM
MAPK1 (human) = MAPK1 (human) (UniProt P28482); conditions: compound 0.1 µM
EEF2K (human) = EEF2K (human) (UniProt O00418); conditions: compound 0.1 µM
ERBB4 (human) = ERBB4 (human) (UniProt Q15303); conditions: compound 0.1 µM
MKNK2 (human) = MKNK2 (human) (UniProt Q9HBH9); conditions: compound 0.1 µM
MKNK1 (human) = MKNK1 (human) (UniProt Q9BUB5); conditions: compound 0.1 µM
MAP3K9 (human) = MAP3K9 (human) (UniProt P80192); conditions: compound 0.1 µM
TTK (human) = TTK (human) (UniProt P33981); conditions: compound 0.1 µM
MAP2K2 (human) = MAP2K2 (human) (UniProt P36507); conditions: compound 0.1 µM
CDK2 CCNA2 (human) = CDK2 CCNA2 (human) (UniProt P20248+P24941); conditions: compound 0.1 µM
[1] = target: STK11 CAB39 STRADA (human) (UniProt Q9Y376+Q7RTN6+Q15831); conditions: compound 0.1 µM
PHKG1 (human) = PHKG1 (human) (UniProt Q16816); conditions: compound 0.1 µM
MAPKAPK3 (human) = MAPKAPK3 (human) (UniProt Q16644); conditions: compound 0.1 µM
INSRR (human) = INSRR (human) (UniProt P14616); conditions: compound 0.1 µM
ROCK2 (rat) = conditions: compound 0.1 µM; accession and sequence are those of the human protein
CSNK2A1 (human) = CSNK2A1 (human) (UniProt P68400); conditions: compound 0.1 µM
FGFR1 (human) = FGFR1 (human) (UniProt P11362); conditions: compound 0.1 µM
PRKCZ (human) = PRKCZ (human) (UniProt Q05513); conditions: compound 0.1 µM

Chain of NTRK1 (human) (P04629 whole entry, looked up): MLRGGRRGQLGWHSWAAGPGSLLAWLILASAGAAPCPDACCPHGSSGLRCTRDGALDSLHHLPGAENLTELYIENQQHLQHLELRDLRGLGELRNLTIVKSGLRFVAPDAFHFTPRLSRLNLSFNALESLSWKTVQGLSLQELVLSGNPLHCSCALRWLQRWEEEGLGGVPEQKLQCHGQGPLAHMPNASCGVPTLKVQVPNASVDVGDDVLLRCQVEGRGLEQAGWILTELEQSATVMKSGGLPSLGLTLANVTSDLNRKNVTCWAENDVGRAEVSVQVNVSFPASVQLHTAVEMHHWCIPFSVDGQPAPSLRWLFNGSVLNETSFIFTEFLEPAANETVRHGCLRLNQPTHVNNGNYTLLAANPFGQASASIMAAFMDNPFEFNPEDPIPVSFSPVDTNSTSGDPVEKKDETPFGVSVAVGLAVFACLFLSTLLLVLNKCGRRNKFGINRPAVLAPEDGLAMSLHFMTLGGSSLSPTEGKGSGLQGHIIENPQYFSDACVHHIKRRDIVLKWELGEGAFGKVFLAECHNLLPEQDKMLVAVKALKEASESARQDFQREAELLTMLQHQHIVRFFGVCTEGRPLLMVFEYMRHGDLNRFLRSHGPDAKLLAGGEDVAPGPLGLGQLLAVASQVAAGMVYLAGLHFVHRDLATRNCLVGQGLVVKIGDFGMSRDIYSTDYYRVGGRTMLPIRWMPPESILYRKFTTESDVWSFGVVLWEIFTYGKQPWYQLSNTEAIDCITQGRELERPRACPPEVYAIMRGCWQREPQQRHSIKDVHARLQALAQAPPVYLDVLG
Chain of FGFR1 (human) (P11362 whole entry, looked up): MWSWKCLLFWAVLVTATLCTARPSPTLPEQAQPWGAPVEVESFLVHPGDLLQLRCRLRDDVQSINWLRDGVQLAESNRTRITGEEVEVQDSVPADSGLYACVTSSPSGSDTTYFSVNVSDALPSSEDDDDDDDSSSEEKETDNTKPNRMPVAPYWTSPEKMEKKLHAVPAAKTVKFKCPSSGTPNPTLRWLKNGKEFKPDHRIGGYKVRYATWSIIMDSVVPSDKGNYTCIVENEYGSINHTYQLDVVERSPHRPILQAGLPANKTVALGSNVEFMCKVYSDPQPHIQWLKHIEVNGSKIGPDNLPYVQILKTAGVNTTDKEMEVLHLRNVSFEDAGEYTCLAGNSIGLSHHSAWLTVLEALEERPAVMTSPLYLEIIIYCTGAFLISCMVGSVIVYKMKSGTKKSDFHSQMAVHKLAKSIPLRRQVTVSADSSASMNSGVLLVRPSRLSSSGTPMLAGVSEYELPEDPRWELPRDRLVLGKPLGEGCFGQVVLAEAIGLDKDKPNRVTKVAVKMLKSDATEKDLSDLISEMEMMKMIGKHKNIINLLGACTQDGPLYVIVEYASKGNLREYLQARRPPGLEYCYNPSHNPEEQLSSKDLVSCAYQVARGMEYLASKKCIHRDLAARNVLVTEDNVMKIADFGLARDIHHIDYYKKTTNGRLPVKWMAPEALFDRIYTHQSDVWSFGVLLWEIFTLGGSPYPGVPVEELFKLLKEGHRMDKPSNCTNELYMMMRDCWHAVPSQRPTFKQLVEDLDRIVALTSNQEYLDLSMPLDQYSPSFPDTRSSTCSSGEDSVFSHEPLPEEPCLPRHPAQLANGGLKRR
Chain of CSNK2A1 (human) (P68400 whole entry, looked up): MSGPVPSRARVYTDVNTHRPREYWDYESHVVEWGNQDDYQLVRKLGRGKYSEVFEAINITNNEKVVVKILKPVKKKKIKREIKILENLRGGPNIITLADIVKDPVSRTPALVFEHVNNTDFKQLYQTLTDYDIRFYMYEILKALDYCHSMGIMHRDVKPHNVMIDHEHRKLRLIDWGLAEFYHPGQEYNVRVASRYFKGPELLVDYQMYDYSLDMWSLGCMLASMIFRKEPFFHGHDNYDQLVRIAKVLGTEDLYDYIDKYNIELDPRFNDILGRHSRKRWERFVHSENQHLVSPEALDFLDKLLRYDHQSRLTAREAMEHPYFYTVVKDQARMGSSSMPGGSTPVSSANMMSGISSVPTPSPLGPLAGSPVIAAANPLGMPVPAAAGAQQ
Chain of MAPK13 (human) (O15264 whole entry, looked up): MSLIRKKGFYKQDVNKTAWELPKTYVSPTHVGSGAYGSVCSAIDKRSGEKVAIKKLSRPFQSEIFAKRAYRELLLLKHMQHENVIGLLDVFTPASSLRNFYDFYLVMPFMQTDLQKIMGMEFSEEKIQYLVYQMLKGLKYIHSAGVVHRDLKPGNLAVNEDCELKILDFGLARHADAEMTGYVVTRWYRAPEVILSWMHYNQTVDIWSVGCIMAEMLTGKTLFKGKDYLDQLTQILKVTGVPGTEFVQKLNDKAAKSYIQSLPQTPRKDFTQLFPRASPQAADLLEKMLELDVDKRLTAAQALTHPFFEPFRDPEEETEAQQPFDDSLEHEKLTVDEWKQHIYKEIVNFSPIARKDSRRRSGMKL
Chain of INSRR (human) (P14616 whole entry, looked up): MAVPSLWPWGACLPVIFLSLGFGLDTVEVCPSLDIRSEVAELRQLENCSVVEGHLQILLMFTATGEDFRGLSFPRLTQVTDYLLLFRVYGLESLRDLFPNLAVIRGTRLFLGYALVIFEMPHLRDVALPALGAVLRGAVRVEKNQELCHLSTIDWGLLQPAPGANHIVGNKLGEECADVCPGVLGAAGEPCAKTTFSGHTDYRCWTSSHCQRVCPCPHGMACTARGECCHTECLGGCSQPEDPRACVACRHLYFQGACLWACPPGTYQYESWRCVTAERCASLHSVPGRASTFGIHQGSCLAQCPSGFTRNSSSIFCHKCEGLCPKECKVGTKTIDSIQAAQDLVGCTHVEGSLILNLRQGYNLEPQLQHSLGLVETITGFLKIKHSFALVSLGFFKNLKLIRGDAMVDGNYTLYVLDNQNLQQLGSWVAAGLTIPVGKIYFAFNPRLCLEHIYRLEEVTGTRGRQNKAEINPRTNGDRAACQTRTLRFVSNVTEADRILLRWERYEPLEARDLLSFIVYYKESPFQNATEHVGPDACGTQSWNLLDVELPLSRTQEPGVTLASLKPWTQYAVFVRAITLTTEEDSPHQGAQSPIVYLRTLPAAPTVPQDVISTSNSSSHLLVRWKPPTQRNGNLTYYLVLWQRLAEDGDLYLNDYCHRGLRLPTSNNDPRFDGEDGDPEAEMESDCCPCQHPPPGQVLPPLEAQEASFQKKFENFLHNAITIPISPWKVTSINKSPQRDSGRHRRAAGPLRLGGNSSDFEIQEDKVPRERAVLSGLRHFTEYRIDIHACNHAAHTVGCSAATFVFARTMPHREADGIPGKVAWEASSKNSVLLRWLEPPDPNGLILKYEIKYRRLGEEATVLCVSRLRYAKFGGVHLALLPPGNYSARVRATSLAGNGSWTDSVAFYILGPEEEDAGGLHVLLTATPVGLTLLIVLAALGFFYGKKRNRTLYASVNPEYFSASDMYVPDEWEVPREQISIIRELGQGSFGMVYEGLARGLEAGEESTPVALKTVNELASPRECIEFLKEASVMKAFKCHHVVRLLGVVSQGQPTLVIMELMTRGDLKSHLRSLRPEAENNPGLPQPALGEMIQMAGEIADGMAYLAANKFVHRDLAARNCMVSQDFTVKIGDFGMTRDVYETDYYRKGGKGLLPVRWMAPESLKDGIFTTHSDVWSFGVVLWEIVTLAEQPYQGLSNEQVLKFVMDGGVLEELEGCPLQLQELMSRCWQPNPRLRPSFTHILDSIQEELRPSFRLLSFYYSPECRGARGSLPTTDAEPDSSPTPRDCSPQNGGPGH
Chain of MKNK1 (human) (Q9BUB5 whole entry, looked up): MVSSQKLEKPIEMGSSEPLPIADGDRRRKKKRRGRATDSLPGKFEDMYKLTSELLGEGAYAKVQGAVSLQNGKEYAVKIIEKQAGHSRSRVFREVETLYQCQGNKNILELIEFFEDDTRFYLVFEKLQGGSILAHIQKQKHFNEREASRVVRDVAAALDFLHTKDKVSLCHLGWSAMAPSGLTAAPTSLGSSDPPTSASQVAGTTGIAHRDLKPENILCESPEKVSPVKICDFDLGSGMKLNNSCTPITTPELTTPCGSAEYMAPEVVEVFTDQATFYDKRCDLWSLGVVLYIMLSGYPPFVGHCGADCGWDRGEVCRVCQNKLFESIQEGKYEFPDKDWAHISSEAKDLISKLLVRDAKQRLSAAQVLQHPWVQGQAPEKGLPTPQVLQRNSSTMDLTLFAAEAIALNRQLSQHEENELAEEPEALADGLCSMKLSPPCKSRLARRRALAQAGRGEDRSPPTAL
Chain of MAP2K2 (human) (P36507 whole entry, looked up): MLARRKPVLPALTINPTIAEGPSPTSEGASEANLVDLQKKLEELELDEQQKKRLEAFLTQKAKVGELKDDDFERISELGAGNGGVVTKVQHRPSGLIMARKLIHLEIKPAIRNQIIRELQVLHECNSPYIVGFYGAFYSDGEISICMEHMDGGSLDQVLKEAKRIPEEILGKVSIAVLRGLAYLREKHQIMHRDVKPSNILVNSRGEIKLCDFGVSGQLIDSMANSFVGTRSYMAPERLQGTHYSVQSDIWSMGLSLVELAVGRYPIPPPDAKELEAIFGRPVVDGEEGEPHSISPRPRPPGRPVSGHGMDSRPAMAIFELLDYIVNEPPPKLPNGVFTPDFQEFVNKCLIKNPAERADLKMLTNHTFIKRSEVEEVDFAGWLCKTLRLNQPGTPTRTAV
Chain of MAPKAPK3 (human) (Q16644 whole entry, looked up): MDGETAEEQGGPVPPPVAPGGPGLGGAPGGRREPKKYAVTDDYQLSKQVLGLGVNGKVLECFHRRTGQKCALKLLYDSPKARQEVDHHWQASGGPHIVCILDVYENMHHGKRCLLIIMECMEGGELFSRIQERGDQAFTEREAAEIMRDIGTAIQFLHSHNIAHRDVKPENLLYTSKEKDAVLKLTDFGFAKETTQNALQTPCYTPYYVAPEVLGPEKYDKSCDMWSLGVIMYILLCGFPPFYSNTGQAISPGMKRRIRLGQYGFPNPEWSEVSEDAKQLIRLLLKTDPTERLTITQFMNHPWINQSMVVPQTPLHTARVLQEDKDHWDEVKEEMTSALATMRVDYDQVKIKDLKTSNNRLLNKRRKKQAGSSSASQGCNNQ

SMILES: CN1CCN(CCOc2cc(OC3CCOCC3)c3c(Nc4c(Cl)ccc5c4OCO5)ncnc3c2)CC1
- residual activity (PRKAA1 or PRKAA2 (rat)): 99%
- residual activity (EPHB3 (human)): 89%
- residual activity (MINK1 (human)): 90%
- residual activity (MYLK (human)): 97%
- residual activity (MAPK13 (human)): 91%
- residual activity (CSK (human)): 74%
- residual activity (PRKACA (human)): 105%
- residual activity (AURKB (human)): 82%
- residual activity (NTRK1 (human)): 93%
- residual activity (GSK3B (human)): 101%
- residual activity (DAPK1 (human)): 82%
- residual activity (IKBKB (human)): 119%
- residual activity (MARK4 (human)): 95%
- residual activity (MELK (human)): 106%
- residual activity (CHEK2 (human)): 112%
- residual activity (MAPK1 (human)): 100%
- residual activity (EEF2K (human)): 65%
- residual activity (ERBB4 (human)): 67%
- residual activity (MKNK2 (human)): 110%
- residual activity (MKNK1 (human)): 107%
- residual activity (MAP3K9 (human)): 86%
- residual activity (TTK (human)): 112%
- residual activity (MAP2K2 (human)): 107%
- residual activity (CDK2 CCNA2 (human)): 96%
- residual activity [1]: 112%
- residual activity (PHKG1 (human)): 106%
- residual activity (MAPKAPK3 (human)): 92%
- residual activity (INSRR (human)): 123%
- residual activity (ROCK2 (rat)): 111%
- residual activity (CSNK2A1 (human)): 112%
- residual activity (FGFR1 (human)): 110%
- residual activity (PRKCZ (human)): 101%

Reference: the kinase profiling compilation of Christmann-Franck et al. (2016)
